# In patent publication US9273052B2, “Phthalazinone ketone derivative, preparation method thereof, and pharmaceutical use thereof” (Jiangsu Hansoh Pharmaceutical Co., Ltd., priority 2010, dated 2016):
# Key:
# MDA-MB-436 cells = experiment: Cell proliferation inhibition assay (CCK8); assay type: cell-based; conditions: Homo sapiens, 72 hours
# [1] = Pharmacokinetics assay in SD rats (LC/MS/MS plasma concentration); assay type: in vivo; conditions: oral gavage, 15 mg/kg
# Method: The pharmacokinetic behavior of the compounds of the present invention was studied and evaluated in rats.
# 24 Healthy adult SD rats, male and female in half, were purchased from SINO-BRITSH SIPPR/BK LAB. ANIMAL LTD., CO, Certificate No.: SCXK (Shanghai) 2003-0002.
# The intragastrical administration group: the right amount of tested compounds were weighed and dissolved in 0.5 mL of DMSO, diluted with physiological saline to 10 mL and prepared to 1.5 mg/mL.
# The intravenous injection administration group: the right amount of tested compounds were weighed and added into […].
# After an overnight fast, 24 healthy adult SD rats, male and female in half, were administered intragastrically at a dose of 15.0 mg/kg and an administration volume of 10 mL/kg.
# The intragastrical administration group: blood samples (0.2 mL) were taken from orbital sinus at pre administration and at 0.25 hour, 0.5 hour, 1.0 hour, 1.5 hours, 2.0 hours, 3.0 hours, 4.0 hours, 6.0 hours, 7.0 hours, 9.0 hours, 12.0 hours and 24.0 hours post administration, stored in heparinized tubes and centrifuged for 20 minutes at 3,500 rpm to separate plasma. The plasma samples were stored at −20° C. The rats were fed at 2 hours after administration.
# The intravenous injection administration group: blood samples (0.2 mL) were taken from orbital sinus at pre administration and at 2 minutes, 15 minutes, 0.5 hour, 1.0 hour, 2.0 hours, 3.0 hours, 4.0 hours, 6.0 hours, 8.0 hours, 12.0 hours and 24.0 hours post administration, stored in heparinized tubes and centrifuged for 20 minutes at 3,500 rpm to separate plasma. The plasma samples were stored at −20° C.
# 20 μL of rat blank plasmas taken at various time points after administration were added with 50 μL of internal standard solution and 140 μL of methanol and mixed for 3 minutes by a vortexer. The mixture was centrifuged for 10 minutes at 13,500 rpm. 20 μL of the supernatant was analyzed by LC-MS/MS. The main pharmacokinetic parameters were calculated by software DAS 2.0.
# [2] = system: human colon carcinoma SW620; experiment: Antitumor effect with temozolomide on SW620 transplanted tumors in nude mice; assay type: in vivo; conditions: colon carcinoma SW620 in BALB/cA-nude mice; 10 mg/kg oral gavage + TMZ 50 mg/kg oral gavage; day 52
# Method: The therapeutic effect of the compounds of the present invention administered in combination with temozolomide (TMZ) on transplanted tumors of human colon carcinoma SW620 or human breast cancer cells MX-1 in nude mice was evaluated by using BALB/cA-nude mice as test animals.
# BALB/cA-nude mice, SPF, 16-20 g, female( ), were purchased from SINO-BRITSH SIPPR/BK LAB. ANIMAL LTD., CO. Certificate No.: SCXK(Shanghai) 2008-0016.
# 4.2 The right rib of the nude mice was subcutaneously inoculated with colon carcinoma cells SW620. After tumors grew to 339±132 mm^3, mice were randomly divided into teams (d0).
# The volume of tumors and the weight of the mice were measured and recorded for 2 to 3 times per week.
# The volume of tumor (V) was calculated by the follow equation: V=½×a×b^2 wherein: a, b represents length and width respectively. The antitumor rate(%)=(C−T)/C(%) wherein: T, C represents the tumor volume of the experimental group (tested compounds) and blank control group at the end of the experiment respectively. 5. Dosage, Dosage Regimens and the Results
# [3] = system: human breast cancer cells MX-1; experiment: Antitumor effect with temozolomide on MX-1 transplanted tumors in nude mice; assay type: in vivo; conditions: breast cancer MX-1 in BALB/cA-nude mice, day 8
# Method: The therapeutic effect of the compounds of the present invention administered in combination with temozolomide (TMZ) on transplanted tumors of human colon carcinoma SW620 or human breast cancer cells MX-1 in nude mice was evaluated by using BALB/cA-nude mice as test animals. BALB/cA-nude mice, SPF, 16-20 g, female( ), were purchased from SINO-BRITSH SIPPR/BK LAB. ANIMAL LTD., CO. Certificate No.: SCXK(Shanghai) 2008-0016. Nude mice were subcutaneously inoculated with human breast cancer cells MX-1. After tumors grew to 100 to 200 mm^3, mice were randomly divided into teams (d0). The volume of tumors and the weight of the mice were measured and recorded for 2 to 3 times per week. The volume of tumor (V) was calculated by the follow equation: V=½×a×b^2 wherein: a, b represents length and width respectively. The antitumor rate(%)=(C−T)/C(%) wherein: T, C represents the tumor volume of the experimental group (tested compounds) and blank control group at the end of the experiment respectively. 5. Dosage, Dosage Regimens and the Results
structure (smiles),measurement,setting,value
"O=C(c1cc(Cc2n[nH]c(=O)c3ccccc23)ccc1F)N1CCn2nc(C(F)(F)F)nc2C1 [Example 19, 4-[[4-fluoro-3-[2-(trifluoromethyl)-6,8-dihydro-5H-[1,2,4]triazolo[1,5-a]pyrazine-7-carbonyl]phenyl]methyl]-2H-phthalazin-1-one]",IC50,MDA-MB-436 cells,49 nM
same,AUC,"[1]; both sexes, rat, plasma, read-out: Area Under Curve AUC",12600 ± 12400 ng·h/mL
same,half-life,"[1]; both sexes, rat, plasma, read-out: Half-Life t1/2 (converted)",587 ± 289 min
same,MRT,"[1]; both sexes, rat, plasma, read-out: Mean Residence Time MRT",3.5 ± 1.46 h
same,Cmax,"[1]; both sexes, rat, plasma, read-out: Plasma Conc. Cmax",2340 ± 1650 ng/mL
same,Apparent Distribution Volume Vz/F,[1],7.97 ± 5.38 kg⁻¹
same,Clearance CL/F,[1],3.45 ± 3.21 1/11/kg
same,antitumor rate (%),[2],++ (“++”: 60%~80%)
same,antitumor rate (%),[3]; 1 mg/kg oral gavage + TMZ 50 mg/kg oral gavage,+++ (“+++”: 80%~100%)
same,antitumor rate (%),[3]; 3 mg/kg oral gavage + TMZ 50 mg/kg oral gavage,+++ (“+++”: 80%~100%)
same,antitumor rate (%),[3]; 10 mg/kg oral gavage + TMZ 50 mg/kg oral gavage,+++ (“+++”: 80%~100%)
